What was measured:
[1] = human
[2] = human; remark: listed apart in the source
[3] = human; remark: listed apart in the source
[4] = human, serum, 4383 h
[5] = human; remark: listed apart in the source
[6] = Highest frequency of moderate liver toxicity observed during clinical trials, expressed as a percentage. [column '% BIOL' in source]; details: human
[7] = human; remark: listed apart in the source
[8] = human, serum
[9] = human; remark: listed apart in the source
[10] = human; remark: listed apart in the source
[11] = human, serum; remark: listed apart in the source
[12] = human; remark: listed apart in the source
[13] = human; remark: listed apart in the source
[14] = Highest frequency of acute liver toxicity observed during clinical trials, expressed as a percentage. [column '% AIGUE' in source]; details: human
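Wherever Hepatotoxicity (association with vascular disease) is given: count of indexed literature references reporting vascular liver injury in humans, e.g. peliosis hepatitis, hepatic veno-occlusive disease or Budd-Chiari syndrome.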
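Wherever Hepatotoxicity (benign tumour) is given: value is a count of indexed literature references citing a benign tumour confirmed by histopathology.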
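Wherever Hepatotoxicity (choleostasis) is given: human cholestatic liver injury, shown by histopathology or by peak ALT or AST elevation over alkaline phosphatase ratio below 2, value counts indexed literature reports.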
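Wherever Hepatotoxicity (chronic liver disease) is given: chronic liver injury confirmed by histopathology or persistently raised serum aminotransferase activity beyond 6 months, value given as the count of indexed literature references.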
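Wherever Hepatotoxicity (cirrhosis) is given: value is a count of indexed literature references reporting cirrhosis confirmed by histopathology.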
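Wherever Hepatotoxicity (cytolytic) is given: human cytolytic liver injury, shown by histopathology or by a ratio above 5 of peak ALT or AST elevation to alkaline phosphatase elevation, value counts indexed references.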
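Wherever Hepatotoxicity (granulomatous hepatitis) is given: value is a count of indexed literature references reporting granulomatous liver disease confirmed by histopathology.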
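Wherever Hepatotoxicity (malignant tumour) is given: malignant tumour confirmed by histopathology, value gives the count of indexed literature references reporting it.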
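Wherever Hepatotoxicity (severe hepatitis) is given: human clinical data: severe hepatitis, meaning potentially life-threatening liver failure or clinically observed cases, the value counts how many indexed literature references report it.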
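Wherever Hepatotoxicity (steatosis) is given: steatosis confirmed by histopathology, value is the count of indexed references.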

O=C(O)C(=O)O [OXALIC ACID]
Hepatotoxicity (benign tumour) [1]: 0 | Hepatotoxicity (malignant tumour) [2]: 0 | Hepatotoxicity (steatosis) [3]: 0 | Hepatotoxicity (chronic liver disease) [4]: 0 | Hepatotoxicity (cytolytic) [5]: 0 | Hepatotoxicity (moderate) [6]: 0% | Hepatotoxicity (cirrhosis) [7]: 0 | Hepatotoxicity (moderate) [8]: 1 | Hepatotoxicity (granulomatous hepatitis) [9]: 0 | Hepatotoxicity (choleostasis) [10]: 0 | Hepatotoxicity (acute) [11]: 0 | Hepatotoxicity (association with vascular disease) [12]: 0 | Hepatotoxicity (severe hepatitis) [13]: 0 | Hepatotoxicity (acute) [14]: 0%

CC(C)NCC1CCc2cc(CO)c([N+](=O)[O-])cc2N1 (centres undefined) [OXAMNIQUINE]
Hepatotoxicity (benign tumour) [1]: 0 | Hepatotoxicity (malignant tumour) [2]: 0 | Hepatotoxicity (steatosis) [3]: 0 | Hepatotoxicity (chronic liver disease) [4]: 0 | Hepatotoxicity (cytolytic) [5]: 0 | Hepatotoxicity (moderate) [6]: 0% | Hepatotoxicity (cirrhosis) [7]: 0 | Hepatotoxicity (moderate) [8]: 3 | Hepatotoxicity (granulomatous hepatitis) [9]: 0 | Hepatotoxicity (choleostasis) [10]: 0 | Hepatotoxicity (acute) [11]: 0 | Hepatotoxicity (association with vascular disease) [12]: 0 | Hepatotoxicity (severe hepatitis) [13]: 0 | Hepatotoxicity (acute) [14]: 0%

COc1cc2[nH]c(C)c(CCN3CCN(c4ccccc4)CC3)c2cc1OC [OXYPERTINE]
Hepatotoxicity (benign tumour) [1]: 0 | Hepatotoxicity (malignant tumour) [2]: 0 | Hepatotoxicity (steatosis) [3]: 0 | Hepatotoxicity (chronic liver disease) [4]: 0 | Hepatotoxicity (cytolytic) [5]: 0 | Hepatotoxicity (moderate) [6]: 0% | Hepatotoxicity (cirrhosis) [7]: 0 | Hepatotoxicity (moderate) [8]: 1 | Hepatotoxicity (granulomatous hepatitis) [9]: 0 | Hepatotoxicity (choleostasis) [10]: 0 | Hepatotoxicity (acute) [11]: 0 | Hepatotoxicity (association with vascular disease) [12]: 0 | Hepatotoxicity (severe hepatitis) [13]: 0 | Hepatotoxicity (acute) [14]: 0%

NCCC(O)(P(=O)(O)O)P(=O)(O)O [PAMIDRONIC ACID]
Hepatotoxicity (benign tumour) [1]: 0 | Hepatotoxicity (malignant tumour) [2]: 0 | Hepatotoxicity (steatosis) [3]: 0 | Hepatotoxicity (chronic liver disease) [4]: 0 | Hepatotoxicity (cytolytic) [5]: 0 | Hepatotoxicity (moderate) [6]: 2.7% | Hepatotoxicity (cirrhosis) [7]: 0 | Hepatotoxicity (moderate) [8]: 3 | Hepatotoxicity (granulomatous hepatitis) [9]: 0 | Hepatotoxicity (choleostasis) [10]: 0 | Hepatotoxicity (acute) [11]: 0 | Hepatotoxicity (association with vascular disease) [12]: 0 | Hepatotoxicity (severe hepatitis) [13]: 0 | Hepatotoxicity (acute) [14]: 0%

CCC(=O)NS(=O)(=O)c1ccc(-c2c(-c3ccccc3)noc2C)cc1 [PARECOXIB]
Hepatotoxicity (benign tumour) [1]: 0 | Hepatotoxicity (malignant tumour) [2]: 0 | Hepatotoxicity (steatosis) [3]: 0 | Hepatotoxicity (chronic liver disease) [4]: 0 | Hepatotoxicity (cytolytic) [5]: 0 | Hepatotoxicity (moderate) [6]: 6.5% | Hepatotoxicity (cirrhosis) [7]: 0 | Hepatotoxicity (moderate) [8]: 1 | Hepatotoxicity (granulomatous hepatitis) [9]: 0 | Hepatotoxicity (choleostasis) [10]: 0 | Hepatotoxicity (acute) [11]: 0 | Hepatotoxicity (association with vascular disease) [12]: 0 | Hepatotoxicity (severe hepatitis) [13]: 0 | Hepatotoxicity (acute) [14]: 0%

C[C@H]1COc2c(C3(N)CC3)c(F)cc3c(=O)c(C(=O)O)cn1c23 [PAZUFLOXACIN]
Hepatotoxicity (benign tumour) [1]: 0 | Hepatotoxicity (malignant tumour) [2]: 0 | Hepatotoxicity (steatosis) [3]: 0 | Hepatotoxicity (chronic liver disease) [4]: 0 | Hepatotoxicity (cytolytic) [5]: 0 | Hepatotoxicity (moderate) [6]: 11.1% | Hepatotoxicity (cirrhosis) [7]: 0 | Hepatotoxicity (moderate) [8]: 31 | Hepatotoxicity (granulomatous hepatitis) [9]: 0 | Hepatotoxicity (choleostasis) [10]: 0 | Hepatotoxicity (acute) [11]: 0 | Hepatotoxicity (association with vascular disease) [12]: 0 | Hepatotoxicity (severe hepatitis) [13]: 0 | Hepatotoxicity (acute) [14]: 0%

CNc1nc(N(C)C)nc(N(C)C)n1 [PENTAMETHYL MELAMINE]
Hepatotoxicity (benign tumour) [1]: 0 | Hepatotoxicity (malignant tumour) [2]: 0 | Hepatotoxicity (steatosis) [3]: 0 | Hepatotoxicity (chronic liver disease) [4]: 0 | Hepatotoxicity (cytolytic) [5]: 0 | Hepatotoxicity (moderate) [6]: 31% | Hepatotoxicity (cirrhosis) [7]: 0 | Hepatotoxicity (moderate) [8]: 1 | Hepatotoxicity (granulomatous hepatitis) [9]: 0 | Hepatotoxicity (choleostasis) [10]: 0 | Hepatotoxicity (acute) [11]: 0 | Hepatotoxicity (association with vascular disease) [12]: 0 | Hepatotoxicity (severe hepatitis) [13]: 0 | Hepatotoxicity (acute) [14]: 0%

CCCN1C[C@H](CSC)C[C@@H]2c3cccc4[nH]cc(c34)C[C@H]21 [PERGOLIDE]
Hepatotoxicity (benign tumour) [1]: 0 | Hepatotoxicity (malignant tumour) [2]: 0 | Hepatotoxicity (steatosis) [3]: 0 | Hepatotoxicity (chronic liver disease) [4]: 0 | Hepatotoxicity (cytolytic) [5]: 0 | Hepatotoxicity (moderate) [6]: 1.9% | Hepatotoxicity (cirrhosis) [7]: 0 | Hepatotoxicity (moderate) [8]: 3 | Hepatotoxicity (granulomatous hepatitis) [9]: 0 | Hepatotoxicity (choleostasis) [10]: 0 | Hepatotoxicity (acute) [11]: 0 | Hepatotoxicity (association with vascular disease) [12]: 0 | Hepatotoxicity (severe hepatitis) [13]: 0 | Hepatotoxicity (acute) [14]: 0%

CCC(C(=O)NC(N)=O)c1ccccc1 (centres undefined) [PHENETURIDE]
Hepatotoxicity (benign tumour) [1]: 0 | Hepatotoxicity (malignant tumour) [2]: 0 | Hepatotoxicity (steatosis) [3]: 0 | Hepatotoxicity (chronic liver disease) [4]: 0 | Hepatotoxicity (cytolytic) [5]: 0 | Hepatotoxicity (moderate) [6]: 0% | Hepatotoxicity (cirrhosis) [7]: 0 | Hepatotoxicity (moderate) [8]: 1 | Hepatotoxicity (granulomatous hepatitis) [9]: 0 | Hepatotoxicity (choleostasis) [10]: 0 | Hepatotoxicity (acute) [11]: 0 | Hepatotoxicity (association with vascular disease) [12]: 0 | Hepatotoxicity (severe hepatitis) [13]: 0 | Hepatotoxicity (acute) [14]: 0%

O=C(O)c1ccccc1C(=O)Nc1ccc(S(=O)(=O)Nc2nccs2)cc1 [PHTHALYLSULFATHIAZOLE]
Hepatotoxicity (benign tumour) [1]: 0 | Hepatotoxicity (malignant tumour) [2]: 0 | Hepatotoxicity (steatosis) [3]: 0 | Hepatotoxicity (chronic liver disease) [4]: 0 | Hepatotoxicity (cytolytic) [5]: 0 | Hepatotoxicity (moderate) [6]: 0% | Hepatotoxicity (cirrhosis) [7]: 0 | Hepatotoxicity (moderate) [8]: 0 | Hepatotoxicity (granulomatous hepatitis) [9]: 0 | Hepatotoxicity (choleostasis) [10]: 0 | Hepatotoxicity (acute) [11]: 1 | Hepatotoxicity (association with vascular disease) [12]: 0 | Hepatotoxicity (severe hepatitis) [13]: 0 | Hepatotoxicity (acute) [14]: 0%

CCn1cc(C(=O)O)c(=O)c2cnc(N3CCNCC3)nc21 [PIPEMIDIC ACID]
Hepatotoxicity (benign tumour) [1]: 0 | Hepatotoxicity (malignant tumour) [2]: 0 | Hepatotoxicity (steatosis) [3]: 0 | Hepatotoxicity (chronic liver disease) [4]: 0 | Hepatotoxicity (cytolytic) [5]: 0 | Hepatotoxicity (moderate) [6]: 0% | Hepatotoxicity (cirrhosis) [7]: 0 | Hepatotoxicity (moderate) [8]: 1 | Hepatotoxicity (granulomatous hepatitis) [9]: 0 | Hepatotoxicity (choleostasis) [10]: 0 | Hepatotoxicity (acute) [11]: 0 | Hepatotoxicity (association with vascular disease) [12]: 0 | Hepatotoxicity (severe hepatitis) [13]: 0 | Hepatotoxicity (acute) [14]: 0%

CC(=O)c1ccc2c(c1)N(CCCN1CCC(CCO)CC1)c1ccccc1S2 [PIPERACETAZINE]
Hepatotoxicity (benign tumour) [1]: 0 | Hepatotoxicity (malignant tumour) [2]: 0 | Hepatotoxicity (steatosis) [3]: 0 | Hepatotoxicity (chronic liver disease) [4]: 0 | Hepatotoxicity (cytolytic) [5]: 0 | Hepatotoxicity (moderate) [6]: 39% | Hepatotoxicity (cirrhosis) [7]: 0 | Hepatotoxicity (moderate) [8]: 1 | Hepatotoxicity (granulomatous hepatitis) [9]: 0 | Hepatotoxicity (choleostasis) [10]: 0 | Hepatotoxicity (acute) [11]: 0 | Hepatotoxicity (association with vascular disease) [12]: 0 | Hepatotoxicity (severe hepatitis) [13]: 0 | Hepatotoxicity (acute) [14]: 0%

CN(C)S(=O)(=O)c1ccc2c(c1)N(CCCN1CCC(CCO)CC1)c1ccccc1S2 [PIPOTIAZINE]
Hepatotoxicity (benign tumour) [1]: 0 | Hepatotoxicity (malignant tumour) [2]: 0 | Hepatotoxicity (steatosis) [3]: 0 | Hepatotoxicity (chronic liver disease) [4]: 0 | Hepatotoxicity (cytolytic) [5]: 0 | Hepatotoxicity (moderate) [6]: 1.9% | Hepatotoxicity (cirrhosis) [7]: 0 | Hepatotoxicity (moderate) [8]: 1 | Hepatotoxicity (granulomatous hepatitis) [9]: 0 | Hepatotoxicity (choleostasis) [10]: 0 | Hepatotoxicity (acute) [11]: 0 | Hepatotoxicity (association with vascular disease) [12]: 0 | Hepatotoxicity (severe hepatitis) [13]: 0 | Hepatotoxicity (acute) [14]: 0%

COc1cccc2c1C(=O)c1c(O)c3c(c(O)c1C2=O)C[C@@](O)(C(=O)CO)C[C@@H]3O[C@H]1C[C@H](N)[C@H](O[C@@H]2CCCCO2)[C@H](C)O1 [PIRARUBICIN]
Hepatotoxicity (benign tumour) [1]: 0 | Hepatotoxicity (malignant tumour) [2]: 0 | Hepatotoxicity (steatosis) [3]: 0 | Hepatotoxicity (chronic liver disease) [4]: 0 | Hepatotoxicity (cytolytic) [5]: 0 | Hepatotoxicity (moderate) [6]: 1.1% | Hepatotoxicity (cirrhosis) [7]: 0 | Hepatotoxicity (moderate) [8]: 1 | Hepatotoxicity (granulomatous hepatitis) [9]: 0 | Hepatotoxicity (choleostasis) [10]: 0 | Hepatotoxicity (acute) [11]: 0 | Hepatotoxicity (association with vascular disease) [12]: 0 | Hepatotoxicity (severe hepatitis) [13]: 0 | Hepatotoxicity (acute) [14]: 0%

CN1CCN(CC(=O)N2c3ccccc3C(=O)Nc3cccnc32)CC1 [PIRENZEPINE]
Hepatotoxicity (benign tumour) [1]: 0 | Hepatotoxicity (malignant tumour) [2]: 0 | Hepatotoxicity (steatosis) [3]: 0 | Hepatotoxicity (chronic liver disease) [4]: 0 | Hepatotoxicity (cytolytic) [5]: 0 | Hepatotoxicity (moderate) [6]: 0.7% | Hepatotoxicity (cirrhosis) [7]: 0 | Hepatotoxicity (moderate) [8]: 2 | Hepatotoxicity (granulomatous hepatitis) [9]: 0 | Hepatotoxicity (choleostasis) [10]: 0 | Hepatotoxicity (acute) [11]: 0 | Hepatotoxicity (association with vascular disease) [12]: 0 | Hepatotoxicity (severe hepatitis) [13]: 0 | Hepatotoxicity (acute) [14]: 0%

Cc1cccc(Nc2cc(Cl)nc(SCC(=O)NCCO)n2)c1C [PIRINIXIL]
Hepatotoxicity (benign tumour) [1]: 0 | Hepatotoxicity (malignant tumour) [2]: 0 | Hepatotoxicity (steatosis) [3]: 0 | Hepatotoxicity (chronic liver disease) [4]: 0 | Hepatotoxicity (cytolytic) [5]: 0 | Hepatotoxicity (moderate) [6]: 0% | Hepatotoxicity (cirrhosis) [7]: 0 | Hepatotoxicity (moderate) [8]: 1 | Hepatotoxicity (granulomatous hepatitis) [9]: 0 | Hepatotoxicity (choleostasis) [10]: 0 | Hepatotoxicity (acute) [11]: 0 | Hepatotoxicity (association with vascular disease) [12]: 0 | Hepatotoxicity (severe hepatitis) [13]: 0 | Hepatotoxicity (acute) [14]: 0%
